Our source for the Ki values is ChEMBL document CHEMBL1126527, “Insight into the catalytic mechanism of KDO8P synthase. Synthesis and evaluation of the isosteric phosphonate mimic of the putative cyclic intermediate” (Bioorg Med Chem Lett, 1993).

This assay in a line: Inhibition of homogeneous KDO 8-P synthase of Escherichia coli was determined from Dixon Plot.

Structures are written as SMILES.

By Ki is commonly meant a measure of affinity in units of concentration, obtained from inhibition or displacement. Low values mean a stronger hold on the target, high ones a looser hold on the target. As for `O=C(O)C1(OP(=O)(O)O)CC(O)C(O)C([C@H](O)COP(=O)(O)O)O1` (stereo partly specified), the Ki was determined as 4.9 µM.
